In assay [1] the target is T1, DYRK1B (Homo sapiens, UniProt Q9Y463).
T1 construct: purchased Carna Bioscence (Carna Biosciences) 04-131
Kind of assay: DYRK1B in vitro kinase assay (ADP-Glo). The format is biochemical. The settings on record: ADP-Glo assay, ATP 15 μM (Km), substrate 7 μM, enzyme 1 nM or 0.3 nM, 1 h, rt; read-out: DYRK1B IC50.

Assay [2] addresses T2, DYRK1A (Homo sapiens, UniProt Q13627).
T2 construct: purchased Carna Bioscence (Carna Biosciences) 04-130
Kind of assay: DYRK1A in vitro kinase assay (ADP-Glo). The format is biochemical. The note with it: ATP 70 μM (Km), substrate 3 μM, enzyme 2 nM or 0.7 nM, 30 min, rt. A general note: ADP-Glo first removes unused ATP, then detects ADP through luciferase.

Where a name gives a salt, the structure may show the parent alone. A value given as a limit tells only on which side of the number the result lay.

T1 sequence (Q9Y463 whole entry): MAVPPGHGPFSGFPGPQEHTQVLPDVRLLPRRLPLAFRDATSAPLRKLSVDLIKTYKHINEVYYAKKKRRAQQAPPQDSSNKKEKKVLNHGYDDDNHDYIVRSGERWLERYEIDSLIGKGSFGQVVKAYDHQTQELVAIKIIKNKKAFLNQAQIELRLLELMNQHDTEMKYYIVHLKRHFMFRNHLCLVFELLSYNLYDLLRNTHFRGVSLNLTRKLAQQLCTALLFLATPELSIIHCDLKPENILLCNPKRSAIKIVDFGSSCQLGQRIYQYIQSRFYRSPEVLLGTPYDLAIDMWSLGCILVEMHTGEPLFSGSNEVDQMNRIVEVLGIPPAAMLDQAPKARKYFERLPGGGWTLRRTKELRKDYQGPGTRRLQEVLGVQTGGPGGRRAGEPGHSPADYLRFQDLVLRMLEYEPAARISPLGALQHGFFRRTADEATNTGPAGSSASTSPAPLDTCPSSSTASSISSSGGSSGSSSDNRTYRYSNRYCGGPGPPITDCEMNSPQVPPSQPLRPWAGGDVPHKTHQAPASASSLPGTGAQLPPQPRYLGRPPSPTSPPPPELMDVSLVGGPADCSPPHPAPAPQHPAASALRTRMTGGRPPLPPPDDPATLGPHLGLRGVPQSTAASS

Consider `O=C(NCc1cccnc1)c1cnc2[nH]cc(-c3cc(F)c4nccc(-c5cccnc5)c4c3)c2c1` [Example 47, 3-[8-Fluoro-4-(pyridin-3-yl)quinolin-6-yl]-N-(pyridin-3-ylmethyl)-1H-pyrrolo[2,3-b]pyridine-5-carboxamide], for which the IC50 in assay [1] and in assay [2] was below 0.01 µM in each case.

Regarding `NCCCNC(=O)c1cnc2[nH]cc(-c3cc(F)c4ncccc4c3)c2c1` [Example 35, N-(3-Aminopropyl)-3-(8-fluoroquinolin-6-yl)-1H-pyrrolo[2,3-b]pyridine-5-carboxamide hydrochloride], the IC50 in assay [1] and in assay [2] was below 0.01 µM in each case.

On to `c1ccc(-c2ccnc3ccc(-c4c[nH]c5ncccc45)cc23)cc1` [Example 8, 4-Phenyl-6-{1H-pyrrolo[2,3-b]pyridin-3-yl}quinoline], for which the IC50 in assay [1] and in assay [2] was below 0.01 µM in each case.

For the compound `CNC(=O)c1cnc2[nH]cc(-c3ccc4nccc(Cl)c4c3)c2c1` [Example 24, 3-(4-Chloroquinolin-6-yl)-N-methyl-1H-pyrrolo[2,3-b]pyridine-5-carboxamide], the IC50 in assay [1] and in assay [2] was below 0.01 µM each time.

`O=C(NCc1ccccc1)c1cnc2[nH]cc(-c3cc(F)c4nccc(-c5cccnc5)c4c3)c2c1` [Example 36, N-Benzyl-3-[8-fluoro-4-(pyridin-3-yl)quinolin-6-yl]-1H-pyrrolo[2,3-b]pyridine-5-carboxamide]: the IC50 (as a rule, the concentration that gives 50% inhibition) in assay [1] was below 0.01 µM; in assay [2] it was 0.01 to 0.1 µM.

For `CNC(=O)c1cnc2[nH]cc(-c3cc(F)c4nccc(-c5cnccc5C)c4c3)c2c1` [Example 44, N-Methyl-3-[8-fluoro-4-(4-methylpyridin-3-yl)quinolin-6-yl]-1H-pyrrolo[2,3-b]pyridine-5-carboxamide], the IC50 in assay [1] and in assay [2] was below 0.01 µM throughout.

`CNC(=O)c1cnc2[nH]cc(-c3ccc4ncc(NC(C)=O)c(N5CCOCC5)c4c3)c2c1` [Example 57, 3-[3-Acetamido-4-(morpholin-4-yl)quinolin-6-yl]-N-methyl-1H-pyrrolo[2,3-b]pyridine-5-carboxamide]: the IC50 in assay [1] and in assay [2] was below 0.01 µM in each case.

As for `CNC(=O)c1cnc2[nH]cc(-c3cc(F)c4nccc(N5CCC[C@@H](N)C5)c4c3)c2c1` [Example 41, 3-{4-[(3R)-3-Aminopiperidin-1-yl]-8-fluoroquinolin-6-yl}-N-methyl-1H-pyrrolo[2,3-b]pyridine-5-carboxamide hydrochloride], the IC50 in assay [1] and in assay [2] was below 0.01 µM in each case.

In the case of `NCCCNC(=O)c1cnc2[nH]cc(-c3cc(F)c4nccc(-c5cccnc5)c4c3)c2c1` [Example 37, N-(3-Aminopropyl)-3-[8-fluoro-4-(pyridin-3-yl)quinolin-6-yl]-1H-pyrrolo[2,3-b]pyridine-5-carboxamide hydrochloride], the IC50 in assay [1] and in assay [2] was below 0.01 µM throughout.

For `C=CCCCc1ccnc2ccc(-c3c[nH]c4ncc(CN(C)CC=C)cc34)cc12` [Example 21, Methyl({3-[4-(pent-4-en-1-yl)quinolin-6-yl]-1H-pyrrolo[2,3-b]pyridin-5-yl}methyl)(prop-2-en-1-yl)amine], the IC50 is below 0.01 µM in assay [1] and 0.01 to 0.1 µM in assay [2].

For `CNC(=O)c1cnc2[nH]cc(-c3ccc4ncc(NCC5CCOCC5)c(N5CCOCC5)c4c3)c2c1` [Example 58, N-Methyl-3-[4-(morpholin-4-yl)-3-[(oxan-4-ylmethyl)amino]quinolin-6-yl]-1H-pyrrolo[2,3-b]pyridine-5-carboxamide], the IC50 was below 0.01 µM in assay [1] and 0.01 to 0.1 µM in assay [2].

`CNC(=O)c1cnc2[nH]cc(-c3ccc4nccc(-c5cccnc5)c4c3)c2c1` [Example 22, N-Methyl-3-[4-(pyridin-3-yl)quinolin-6-yl]-1H-pyrrolo[2,3-b]pyridine-5-carboxamide]: the IC50 in assay [1] and in assay [2] was below 0.01 µM each time.

These data come from US10577365B2, “Derivatives of quinoline as inhibitors of DYRK1A and/or DYRK1B kinases” (Felicitex Therapeutics, Inc., priority 2016, dated 2020).
